Reference: US20130303509A1, “NAMPT INHIBITORS” (AbbVie Inc., priority 2012, published 2013)

Tested on: PC3 cells
Experiment: NAMPT Cell Proliferation Assay
Assay type: cell-based
Conditions: Homo sapiens, PC-3, 120 h, 5 days incubation, cell viability by Cell Titer Glo
Method in brief: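 Seeded at 500 cells/well in RPMI with 10% heat-inactivated FBS and left to attach overnight at 37° C, 5% CO2. Compounds were added as 10-fold dilutions […] for 5 days, then viability was read by CellTiter-Glo. IC50s came from sigmoidal fits of percent inhibition.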

Row | Structure (SMILES) | IC50 [nM]
1 | O=C(Nc1ccc(C2CCN(C(=O)c3cccc(OC(F)(F)F)c3)CC2)cc1)C1CN(c2ccnnc2)C1 [Example 562, 1-(pyridazin-4-yl)-N-(4-{1-[3-(trifluoromethoxy)benzoyl]piperidin-4-yl}phenyl)azetidine-3-carboxamide] | 9.45
2 | O=C(N[C@H]1CCN(c2cccnn2)C1)c1ccc(C2CCN(C(=O)c3ccc(F)cc3)CC2)s1 [Example 755, 5-[1-(4-fluorobenzoyl)piperidin-4-yl]-N-[(3S)-1-(pyridazin-3-yl)pyrrolidin-3-yl]thiophene-2-carboxamide] | 190
3 | O=C(NC1CN(c2cccnn2)C1)c1ccc(C2CCN(C(=O)c3cccc(F)c3)CC2)s1 [Example 814, 5-[1-(3-fluorobenzoyl)piperidin-4-yl]-N-[1-(pyridazin-3-yl)azetidin-3-yl]thiophene-2-carboxamide] | 81.9
4 | O=C(Nc1ccc(OC2CCN(C(=O)CC(F)(F)F)CC2)cc1)C1CN(c2ccnnc2)C1 [Example 268, 1-(pyridazin-4-yl)-N-(4-{[1-(3,3,3-trifluoropropanoyl)piperidin-4-yl]oxy}phenyl)azetidine-3-carboxamide] | 82.9
5 | COc1cccc(C(=O)N2CCC(S(=O)(=O)c3ccc(NC(=O)C4CN(c5cccnn5)C4)cc3)CC2)c1 [Example 596, N-(4-{[1-(3-methoxybenzoyl)piperidin-4-yl]sulfonyl}phenyl)-1-(pyridazin-3-yl)azetidine-3-carboxamide] | 84.6
6 | CCCN1CCC(c2ccc(NC(=O)C3CN(c4cccnc4)C3)cc2)CC1 [Example 95, N-[4-(1-propylpiperidin-4-yl)phenyl]-1-(pyridin-3-yl)azetidine-3-carboxamide] | 73.9
7 | CC(C)C(=O)N1CCC(c2ccc(C(=O)N[C@H]3CCN(c4ccc(Cl)nn4)C3)cc2)CC1 [Example 749, N-[(3S)-1-(6-chloropyridazin-3-yl)pyrrolidin-3-yl]-4-[1-(2-methylpropanoyl)piperidin-4-yl]benzamide] | > 10000

Compounds with a lower IC50, results first:

Row | IC50 [nM] | Structure (SMILES)
8 | 6.03 | CC(C)(C)C(=O)N1CCC(c2ccc(NC(=O)[C@H]3CCN(c4cccnn4)C3)cc2)CC1 [Example 313, (3S)—N-{4-[1-(2,2-dimethylpropanoyl)piperidin-4-yl]phenyl}-1-(pyridazin-3-yl)pyrrolidine-3-carboxamide]
9 | 0.16 | Cn1cccc1C(=O)N1CCC(c2ccc(NC(=O)C3CN(c4cccnc4)C3)cc2)CC1 [Example 128, N-(4-{1-[(1-methyl-1H-pyrrol-2-yl)carbonyl]piperidin-4-yl}phenyl)-1-(pyridin-3-yl)azetidine-3-carboxamide]
10 | 2.07 | Cc1cc(C(=O)N2CCC(c3ccc(NC(=O)C4CN(c5cccnn5)C4)cc3)CC2)c(C)o1 [Example 426, N-(4-{1-[(2,5-dimethylfuran-3-yl)carbonyl]piperidin-4-yl}phenyl)-1-(pyridazin-3-yl)azetidine-3-carboxamide]
11 | 6.46 | O=C(Nc1ccc(OC2CCN(C(=O)c3ccc(F)cc3F)CC2)cc1)C1CN(c2cccnn2)C1 [Example 229, N-(4-{[1-(2,4-difluorobenzoyl)piperidin-4-yl]oxy}phenyl)-1-(pyridazin-3-yl)azetidine-3-carboxamide]
12 | 3.3 | O=C(Nc1ccc(C2CCN(C(=O)c3cc(F)ccc3F)CC2)cc1)[C@H]1CCN(c2cccnn2)C1 [Example 645, (3S)-N-{4-[1-(2,5-difluorobenzoyl)piperidin-4-yl]phenyl}-1-(pyridazin-3-yl)pyrrolidine-3-carboxamide]
13 | 8.68 | O=C(Nc1ccc(C2CCN(C(=O)Cc3cccc4ccccc34)CC2)cc1)C1CN(c2cccnn2)C1 [Example 410, N-{4-[1-(naphthalen-1-ylacetyl)piperidin-4-yl]phenyl}-1-(pyridazin-3-yl)azetidine-3-carboxamide]
14 | 7.06 | O=C(Nc1ccc(OC2CCN(C(=O)c3ccc(Cl)cc3)CC2)cc1)C1CN(c2cccnn2)C1 [Example 245, N-(4-{[1-(4-chlorobenzoyl)piperidin-4-yl]oxy}phenyl)-1-(pyridazin-3-yl)azetidine-3-carboxamide]
